Molecules are shown by their SMILES. Read-outs that look alike come from different tables or passages of the source.

The target in data set [1] is T1, hDM21-188 (hDM2) (Homo sapiens, UniProt Q00987). Kind of data set: Direct fluorescence polarization binding of fluorescein-labeled ligands to hDM2. (In general: Polarisation of emitted light reports the rotation of a fluorescent probe.)
The target of data set [2] is T1, hDM21-188 (hDM2). Put plainly: Competition fluorescence polarization (cFP) assay, inhibition of p53AD^Flu·hDM2 complexation. It counts as binding.
The nature of data set [3]: Analytical ultracentrifugation, oligomeric state. It counts as physicochemical.
Another data set has as its target CREB KID·CBP KIX complex (Homo sapiens, UniProt Q92793). Put plainly: Inhibition of formation of the unrelated CREB KID·CBP KIX complex. It counts as binding. The conditions noted are these: specificity control.
Data set [4] is described as follows: Circular dichroism: extent of 14-helix structure in aqueous buffer. The data set is classed as physicochemical. The conditions noted are these: initial CD comparison of β53-1D and β53-1.
The test system of data set [5] is HeLa-CD4-LTR-β-gal cells and CHO-SEC cells. Kind of data set: Cell-fusion assay (syncitia formation), gp41 mediated fusion. The conditions noted are these: read-out: EC50, inhibition of cell-cell-fusion. The data set is classed as cell-based, HIV-1.
For a further data set, the target named is carbonic anhydrase II (Homo sapiens, UniProt P00918). The settings on record: read-out: Kd for carbonic anhydrase II.
Data set [6] has as its system IZN17. Put plainly: Competition fluorescence polarization, inhibition of C14wt^Flu·IZN17 complexation. Also noted: species or system HIV. The conditions noted are these: read-out: IC50, competition with C14wt^Flu for IZN17 binding.
The target in a further data set is calmodulin (Homo sapiens, UniProt P0DP23). The settings on record: read-out: Kd for calmodulin.
The target of data set [7] is IZN17. Kind of data set: Direct fluorescence polarization binding to gp41 model IZN17. On the set-up: species or system HIV. The conditions noted are these: fluorescein-labeled ligand, direct FP; read-out: equilibrium affinity (Kd) for IZN17.
Where [8] appears, read: read-out: binding affinity (Kd) for hDM2.
Setting [9] is: read-out: IC50, inhibition of p53AD^Flu·hDM2 interaction.
Where [10] appears, read: fluorescein-labeled ligand, read-out: Kd, apparent equilibrium dissociation constant of complexes between fluorescein-labeled ligands and hDM2.
Setting [11] is: concentrations between 80 and 400 μM.
Setting [12] is: competition FP, unlabeled ligand.

T1 sequence (Q00987 1-188 limits assumed): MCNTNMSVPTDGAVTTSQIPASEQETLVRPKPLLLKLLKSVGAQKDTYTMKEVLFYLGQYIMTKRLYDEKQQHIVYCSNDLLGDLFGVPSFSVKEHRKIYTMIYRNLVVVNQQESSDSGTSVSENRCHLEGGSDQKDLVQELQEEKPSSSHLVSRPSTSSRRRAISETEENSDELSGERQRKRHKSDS
Sequence of CREB KID·CBP KIX complex (Q92793 587-666 limits assumed, one chain of several): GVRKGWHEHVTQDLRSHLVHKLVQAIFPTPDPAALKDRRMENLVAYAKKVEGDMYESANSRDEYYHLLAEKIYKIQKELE

By IC50 is commonly meant the concentration at which inhibition is half-maximal. Regarding `CC[C@H](C)[C@@H](CC(=O)N[C@H](CC(=O)N[C@@H](CCC(=O)O)CC(=O)N[C@H](CC(=O)N[C@H](CC(=O)N[C@@H](CCCN)CC(=O)N[C@H](CC(=O)N[C@H](CC(=O)N[C@@H](CCC(=O)O)CC(=O)O)Cc1ccccc1)[C@@H](C)CC)Cc1c[nH]c2ccccc12)[C@@H](C)CC)CC(C)C)NC(=O)C[C@@H](N)CCCN` [Hit 1], at hDM21-188 (hDM2) [1] (setting [8]), the Kd worked out at 55 ± 8 nM. The IC50 on hDM21-188 (hDM2) [2] (setting [9]) came out at 13 ± 1 µM.
For `CC[C@H](C)[C@@H](CC(=O)N[C@H](CC(=O)N[C@@H](CCC(=O)O)CC(=O)N[C@H](CC(=O)N[C@H](CC(=O)N[C@@H](CCCN)CC(=O)N[C@H](CC(=O)N[C@H](CC(=O)N[C@@H](CCC(=O)O)CC(=O)O)Cc1ccccc1)C(C)C)Cc1c[nH]c2ccccc12)[C@@H](C)CC)CC(C)C)NC(=O)C[C@@H](N)CCCN` [Hit 2], in that order: 89 ± 20 nM and 11 ± 1 µM.
Regarding `CC(C)C[C@@H](CC(=O)N[C@@H](CCC(=O)O)CC(=O)N[C@H](CC(=O)N[C@H](CC(=O)N[C@@H](CCCN)CC(=O)N[C@H](CC(=O)N[C@H](CC(=O)N[C@@H](CCC(=O)O)CC(=O)O)Cc1ccccc1)C(C)C)Cc1c[nH]c2ccccc12)C(C)C)NC(=O)C[C@@H](NC(=O)C[C@@H](N)CCCN)C(C)C` [β53-1], on hDM21-188 (hDM2) [1] (setting [10]), the Kd is 370 ± 80 nM. Also, the oligomeric state result in data set [3] (at concentrations exceeding 1 mM) and in data set [3] (setting [11]) was “monomeric” in each case. Besides, the “inhibition of formation of CREB KID·CBP KIX complex” value against CREB KID·CBP KIX complex is “failed to inhibit”. In data set [4], the mean residue ellipticity is recorded as −8450.4 deg·cm^2·dmol^−1. This compound also came in with an IC50 on hDM21-188 (hDM2) [2] (setting [12]) of 94.5 ± 4.4 µM.
On to `CC(C)C[C@@H](CC(=O)N[C@H](CC(=O)N[C@@H](CCC(=O)O)CC(=O)N[C@H](CC(=O)N[C@H](CC(=O)N[C@@H](CCCN)CC(=O)N[C@H](CC(=O)N[C@H](CC(=O)N[C@@H](CCC(=O)O)CC(=O)O)C(C)C)Cc1ccccc1)C(C)C)Cc1c[nH]c2ccccc12)C(C)C)NC(=O)C[C@@H](N)CCCN` [β53-3], for which the oligomeric state result in data set [3] (setting [11]) was “monomeric”. Further, at hDM21-188 (hDM2) [2], the IC50 turned out to be 1590 ± 104 µM.
As for `CC(C)C[C@H](N)CC(=O)N[C@@H](CCC(=O)O)CC(=O)N[C@H](CC(=O)N[C@H](CC(=O)N[C@@H](CCCN)CC(=O)N[C@H](CC(=O)N[C@H](CC(=O)N[C@@H](CCC(=O)O)CC(=O)O)Cc1ccccc1)C(C)C)Cc1c[nH]c2ccccc12)C(C)C` [β53-5], the IC50 on hDM21-188 (hDM2) [2] (setting [12]) was determined as 80.8 ± 3.2 µM.
`CC(C)[C@H](N)CC(=O)N[C@H](CC(=O)N[C@@H](CCCN)CC(=O)N[C@H](CC(=O)N[C@H](CC(=O)N[C@@H](CCC(=O)O)CC(=O)O)Cc1ccccc1)C(C)C)Cc1c[nH]c2ccccc12` [β53-6]: the “IC50 fold better than β53-1 and β53-5” value on hDM21-188 (hDM2) [2] is listed as “over 2 fold”. At hDM21-188 (hDM2) [2] (setting [12]), this compound had a concentration for half-maximal inhibition (IC50) of 36.2 ± 2.6 µM.
Consider `CC(C)[C@H](N)CC(=O)N[C@H](CC(=O)N[C@@H](CCC(=O)O)CC(=O)NCCC(=O)O)Cc1c[nH]c2ccccc12` [β53-7, reference compound], for which the 50% inhibitory concentration (IC50) at hDM21-188 (hDM2) [2] (competition FP) is above 1000 µM.
Regarding `CC(C)C[C@@H](CC(=O)N[C@@H](CCC(=O)O)CC(=O)N[C@H](CC(=O)N[C@H](CC(=O)N[C@@H](CCCN)CC(=O)N[C@H](CC(=O)N[C@H](CC(=O)N[C@@H](CCC(=O)O)CC(=O)O)Cc1ccccc1)C(C)C)Cc1c[nH]c2ccccc12)C(C)C)NC(=O)[C@H]1CCCC[C@@H]1NC(=O)C[C@@H](N)CCCN` [β53-AC2], at hDM21-188 (hDM2) [1] (setting [10]), the Kd came out at 210 ± 40 nM. Further, the oligomeric state result in data set [3] is “no evidence of oligomerization”. This compound returned an IC50 at hDM21-188 (hDM2) [2] (unlabeled ligand) of 15.5 ± 1 µM.
As for `CC(C)C[C@@H](CC(=O)N[C@@H](CCC(=O)O)CC(=O)N[C@H]1CCCC[C@@H]1C(=O)N[C@H](CC(=O)N[C@@H](CCCN)CC(=O)N[C@H](CC(=O)N[C@H](CC(=O)N[C@@H](CCC(=O)O)CC(=O)O)Cc1ccccc1)C(C)C)Cc1c[nH]c2ccccc12)NC(=O)C[C@@H](NC(=O)C[C@@H](N)CCCN)C(C)C` [β53-AC5], on hDM21-188 (hDM2) [1] (setting [10]), the Kd amounted to 210 ± 40 nM. The oligomeric state entry in data set [3] was “discrete higher-order oligomers, likely hexamers or heptamers”. This compound also registered an IC50 at hDM21-188 (hDM2) [2] (unlabeled ligand) of 60.3 ± 3.8 µM.
The like results for `CC(C)C[C@@H](CC(=O)N[C@@H](CCC(=O)O)CC(=O)N[C@H](CC(=O)N[C@H](CC(=O)N[C@@H](CCCN)CC(=O)N[C@H]1CCCC[C@@H]1C(=O)N[C@H](CC(=O)N[C@@H](CCC(=O)O)CC(=O)O)Cc1ccccc1)Cc1c[nH]c2ccccc12)C(C)C)NC(=O)C[C@@H](NC(=O)C[C@@H](N)CCCN)C(C)C` [β53-AC8] were, in that order, 220 ± 60 nM, “could indicate a monomer-dimer equilibrium at low millimolar concentrations” and 10.5 ± 0.8 µM.
On to `CC(C)C[C@@H](CC(=O)N[C@@H](CCC(=O)O)CC(=O)N[C@H]1CCCC[C@@H]1C(=O)N[C@H](CC(=O)N[C@@H](CCCN)CC(=O)N[C@H]1CCCC[C@@H]1C(=O)N[C@H](CC(=O)N[C@@H](CCC(=O)O)CC(=O)O)Cc1ccccc1)Cc1c[nH]c2ccccc12)NC(=O)[C@H]1CCCC[C@@H]1NC(=O)C[C@@H](N)CCCN` [β53-ACtrip], for which the Kd on hDM21-188 (hDM2) [1] (setting [10]) worked out at 170 ± 50 nM. In data set [3], the oligomeric state result is “discrete higher-order oligomers, likely hexamers or heptamers”. Moreover, the IC50 on hDM21-188 (hDM2) [2] (unlabeled ligand) is 17.2 ± 1.3 µM.
The compound `CC(C)[C@@H](CC(=O)N[C@H](CC(=O)N[C@@H](CCC(=O)O)CC(=O)O)Cc1ccccc1)NC(=O)C[C@H](CCCN)NC(=O)C[C@H](C)NC(=O)C[C@@H](NC(=O)C[C@H](CCC(=O)O)NC(=O)C[C@H](C)NC(=O)C[C@@H](NC(=O)C[C@@H](N)CCCN)C(C)C)C(C)C` [β53-F9] yielded an IC50 at hDM21-188 (hDM2) [2] (setting [12]) of 1700 ± 163 µM.
On the same count and under the same terms, the value for `CC(C)C[C@@H](CC(=O)N[C@@H](CCC(=O)O)CC(=O)N[C@H](CC(=O)N[C@@H](C)CC(=O)N[C@@H](CCCN)CC(=O)N[C@H](CC(=O)N[C@@H](C)CC(=O)N[C@@H](CCC(=O)O)CC(=O)O)C(C)C)C(C)C)NC(=O)C[C@@H](NC(=O)C[C@@H](N)CCCN)C(C)C` [β53-L3] was above 7000 µM.
With `CC(C)[C@@H](CC(=O)N[C@H](CC(=O)N[C@@H](CCCN)CC(=O)N[C@H](CC(=O)N[C@@H](C)CC(=O)N[C@@H](CCC(=O)O)CC(=O)O)C(C)C)Cc1c[nH]c2ccccc12)NC(=O)C[C@H](CCC(=O)O)NC(=O)C[C@H](C)NC(=O)C[C@@H](NC(=O)C[C@@H](N)CCCN)C(C)C` [β53-W6], on hDM21-188 (hDM2) [2], the “IC50 value fold higher than that of β53-1” value stood at 2 fold. This compound came in with a half-inhibitory concentration (IC50) on hDM21-188 (hDM2) [2] (setting [12]) of 198 ± 10 µM.
In general, EC50 refers to the concentration that produces a half-maximal response. On to `CC[C@H](C)[C@@H](CC(=O)N[C@@H](CCC(=O)O)CC(=O)N[C@H](CC(=O)N[C@H](CC(=O)N[C@@H](CCCN)CC(=O)N[C@H](CC(=O)N[C@H](CC(=O)N[C@@H](CCC(=O)O)CC(=O)O)Cc1c[nH]c2ccccc12)C(C)C)Cc1c[nH]c2ccccc12)C(C)C)NC(=O)C[C@@H](NC(=O)C[C@@H](N)CCCN)C(C)C` [βWWI-1], for which the concentration for a half-maximal effect (EC50) in [5] is 27 ± 2.5 µM. Moreover, the Kd is at least 115 µM at carbonic anhydrase II, at least 100 µM at calmodulin and 750 ± 100 nM at IZN17 [7]. In addition, the concentration for half-maximal inhibition (IC50) in the data set with IZN17 [6] was 4 ± 0.7 µM.
For the compound `CC[C@H](C)[C@@H](CC(=O)N[C@H](CC(=O)N[C@@H](CCC(=O)O)CC(=O)N[C@H](CC(=O)N[C@H](CC(=O)N[C@@H](CCCN)CC(=O)N[C@H](CC(=O)N[C@H](CC(=O)N[C@@H](CCC(=O)O)CC(=O)O)C(C)C)Cc1c[nH]c2ccccc12)C(C)C)Cc1c[nH]c2ccccc12)C(C)C)NC(=O)C[C@@H](N)CCCN` [βWWI-2], the EC50 in [5] was determined as 15 ± 1.6 µM. For the same compound, in the data set with IZN17 [6], the concentration for half-maximal inhibition (IC50) worked out at 4.6 ± 0.4 µM. For the same compound, the Kd at IZN17 [7] came to 1000 ± 300 nM.
For `CC[C@H](C)[C@@H](CC(=O)N[C@H](CC(=O)N[C@@H](CCC(=O)O)CC(=O)O)C(C)C)NC(=O)C[C@H](CCCN)NC(=O)C[C@@H](NC(=O)C[C@H](Cc1c[nH]c2ccccc12)NC(=O)C[C@H](CCC(=O)O)NC(=O)C[C@@H](NC(=O)C[C@H](Cc1c[nH]c2ccccc12)NC(=O)C[C@@H](N)CCCN)C(C)C)C(C)C` [βWWI-3], the EC50 in data set [5] worked out at 13 ± 1.9 µM. In addition, the half-inhibitory concentration (IC50) in the data set on IZN17 [6] is 13 ± 4.1 µM. At IZN17 [7], the Kd is 2400 ± 700 nM.
The like results for `CC[C@H](C)[C@@H](CC(=O)N[C@@H](CCC(=O)O)CC(=O)O)NC(=O)C[C@@H](NC(=O)C[C@H](CCCN)NC(=O)C[C@H](Cc1c[nH]c2ccccc12)NC(=O)C[C@@H](NC(=O)C[C@H](CCC(=O)O)NC(=O)C[C@H](Cc1c[nH]c2ccccc12)NC(=O)C[C@@H](NC(=O)C[C@@H](N)CCCN)C(C)C)C(C)C)C(C)C` [βWWI-4] were, in that order, 5.3 ± 0.5 µM, 3.3 ± 1.4 µM and 1500 ± 400 nM.
In turn, `N[C@H](CC(=O)O)Cc1c[nH]c2ccccc12` [β^3W, β^3-homotyptophan, reference compound] gave a concentration for half-maximal inhibition (IC50) at hDM21-188 (hDM2) [2] (competition FP) above 1000 µM.

The values are drawn from US8008262B2, “β-peptides” (Yale University, priority 2004, dated 2011).
